pIC50: −log10 of the molar value.

One data set concerns MRC5. Nature of the data set: Antiproliferative activity against human MRC5 cells after 72 hrs by MTT assay. The data set is classed as cell-based. The settings on record: MRC5, 72 h.
The subject of data set [1] is SK-N-MC. In words: cells. The following applies: Homo sapiens, 72 h.
Description: Antiproliferative activity against human SK-N-MC cells after 72 hrs by MTT assay
Data set [2] can be described thus: Toxicity in iv dosed CD2F1 hybrid mouse assessed as maximum tolerated dose administered BID at an interval of 6 hrs for 5 days a week over 2 weeks. The data set is classed as organism-based. The following applies: in vivo.
The subject of data set [3] is M109. In words: Antitumor activity against mouse M109 cells implanted in CD2F1 hybrid mouse assessed as reduction of tumor weight at 0.4 mg/kg, iv administered 4 days after implantation BID for 5 days measured on day 12 after implantation relative to control. Type of data set: functional. On the set-up: scale not given: the % may be the effect or the level left.
For another data set, the system named is SK-MEL-28. In words: Antitumor activity against human SK-MEL-28 cells implanted in nude mouse assessed as reduction in tumor growth at 0.4 mg/kg/day measured up to 7 weeks relative to control. Type of data set: functional. More on the design: scale not given: the % may be the effect or the level left.
The subject of data set [4] is SK-N-MC. In words: Iron chelating activity in human SK-N-MC cells assessed as cellular iron efflux at 25 uM after 3 hrs relative to control. Type of data set: functional.
Data set [5] deals with SK-N-MC. In words: Effect on iron metabolism in human SK-N-MC cells assessed as cellular iron uptake from transferrin at 25 uM after 3 hrs in presence of pronase relative to control. Type of data set: functional.
For data set [6], the system named is M109. In words: Antitumor activity against mouse M109 cells implanted in CD2F1 hybrid mouse assessed as reduction of tumor weight at 6 mg/kg, iv administered 4 days after implantation BID for 5 days measured on day 12 after implantation relative to control. The data set is classed as functional. On the set-up: scale not given: the % may be the effect or the level left.

For another data set, the system named is Rattus norvegicus. Nature of the data set: Iron chelating activity in rat assessed as faecal iron excretion at 25 to 100 mg/kg, po administered as single dose relative to basal level. The settings on record: dose mg/kg 25-100. Type of data set: functional, Feces.
The test system of data set [7] is SK-N-MC. In words: Antiproliferative activity against human SK-N-MC cells by MTT assay. Type of data set: functional, cell-based.
The subject of data set [8] is SK-N-MC. In words: Antiproliferative activity against human SK-N-MC cells after 96 hrs by MTT assay. The data set is classed as functional, cell-based.
Data set [9] concerns SK-N-MC. Nature of the data set: Antiproliferative activity against human SK-N-MC cells. The data set is classed as functional, cell-based.
Another data set relates to CHP-126. Nature of the data set: Antitumor activity against human CHP126 cells at 60 uM after 72 hrs. The data set is classed as functional.
Data set [10] is described as follows: Antitumor activity against human CHP100 cells at 60 uM after 72 hrs. Type of data set: functional.

`NC(=S)N/N=C/c1c(O)ccc2ccccc12`: the pIC50 is less than 4.60 in the data set with MRC5 and 6.30 in the data set on SK-N-MC [1].
As to `CN(C)C(=S)NN=C(c1ccccn1)c1ccccn1`, the maximum tolerated dose (MTD) at 2 weeks in data set [2] was found to be 0.4 mg/kg. The Activity with M109 [3] was 47%; in the data set on SK-MEL-28, 8%; in the data set with SK-N-MC [4], 47%; in the data set on SK-N-MC [5], 9%. In addition, in the data set on SK-N-MC [1], the negative logarithm of the IC50 (pIC50) was 7.52.
Consider `NC(=S)N/N=C/c1ncccc1N` [TRIAPINE], for which, in data set [2], the MTD at 2 weeks came to 6 mg/kg. In the data set on M109 [6], the Activity turned out to be 10%.
`Cc1ncc(CO)c(/C=N/NC(=O)c2ccncc2)c1O` [PYRIDOXAL ISONICOTINOYL HYDRAZONE]: in the data set on Rattus norvegicus, the “fold change (FC)” value was found to be 8.
In the data set with SK-N-MC [7], `O=C(N/N=C(\c1ccccc1)c1ccccn1)c1ccccc1` showed a negative logarithm of the IC50 (pIC50) of 6.00.
Regarding `O=C(N/N=C/c1ccccn1)c1cccs1`, the negative logarithm of the IC50 (pIC50) in the data set on SK-N-MC [7] is 6.00.
With `O=C(N/N=C/c1c(O)ccc2ccccc12)c1ccncc1`, the negative logarithm of the IC50 (pIC50) in the data set on SK-N-MC [8] is 6.00; in the data set on SK-N-MC [9] it was 6.52; in the data set with SK-N-MC [1], 6.52.
With `CC(=O)N(O)CCCCCNC(=O)CCC(=O)N(O)CCCCCNC(=O)CCC(=O)N(O)CCCCCN` [DEFEROXAMINE], the Activity (in the data set on CHP-126; in data set [10]) was 80% in each case. Also, the negative-log IC50 (pIC50) with SK-N-MC [9] was 4.66; in the data set on SK-N-MC [1], 5.30.
